Source: article PMC6753144, “Exploiting biofilm phenotypes for functional characterization of hypothetical genes in Enterococcus faecalis” (NPJ Biofilms and Microbiomes, 2019)

Biological target: T1, Bph-H6 (Bph, OG1RF_10435, biofilm phosphatase) (Enterococcus faecalis, UniProt A0ACD6T9Q6)
T1 construct: full length, 177 residues, C-terminal His6 tag (pET28b+, NcoI/XhoI), expressed in E. coli BL21(DE3), Ni-NTA purified
Assay: malachite green phosphate release assay
Assay type: biochemical
Settings: 10 mM Mn2+, pH 7.5, 37 °C, 1 h, 1 µM enzyme, 100 µM substrate

T1 sequence (A0ACD6T9Q6 entry or part of it): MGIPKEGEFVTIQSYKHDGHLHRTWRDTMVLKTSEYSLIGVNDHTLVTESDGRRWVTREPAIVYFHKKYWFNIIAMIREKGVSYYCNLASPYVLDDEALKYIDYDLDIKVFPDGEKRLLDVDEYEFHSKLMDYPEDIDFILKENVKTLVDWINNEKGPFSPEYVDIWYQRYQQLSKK

SMILES | malachite green phosphate release assay
Nc1ncnc2c1ncn2[C@@H]1O[C@H](COP(=O)(O)OP(=O)(O)OP(=O)(O)O)[C@@H](O)[C@H]1O [ATP] | Bph-H6 had in vitro phosphatase activity on nucleoside triphosphate, nucleoside diphosphate, and deoxynucleoside phosphate substrates
Nc1nc2c(ncn2[C@@H]2O[C@H](COP(=O)(O)OP(=O)(O)O)[C@@H](OP(=O)(O)OP(=O)(O)O)[C@H]2O)c(=O)[nH]1 [ppGpp] | We also detected phosphatase activity against ppGpp, the second messenger
